In PubChem BioAssay AID2060338 (Molecular Pharmacology Branch, DTP, NCI, 2025):

Tested on: 556581-035-R-J1-PDC spheroids with HUVEC/MSC, viability
Assay: Anticancer human tumor 556581-035-R-J1-PDC patient-derived ovarian carcinoma cell line growth inhibition [IpAb]
Settings: for IC50: curve of first compound; for viability, T/C: stronger effect = lower value
Excerpt: Combinatorial screen of targeted agents with ipatasertib and abemaciclib in multi-cell type tumor spheroids
A high-throughput screen of multi-cell type tumor spheroids was designed to identify active combinations of targeted small molecules and ipatasertib or abemaciclib. Complex spheroids include a stromal component modeled by human endothelial cells (HUVEC) and fibroblasts modeled by human mesenchymal stem cells (MSCs). The concentration ranges selected for each drug and investigational agent were based upon clinically achievable concentrations if the clinical Cmax of the agent was known.
Compounds. The drugs and investigational agents: ipatasertib (NSC767898), abemaciclib(NSC768073), selumetinib (NSC741078), trametinib (758246), adavosertib (NSC754352), everolimus (NSC733504), sapanisertib (NSC764658), vemurafenib (NSC761431), venetoclax (NSC766270), copanlisib (NSC809693), apelisib (NSC765974), palbociblib (NSC758247), vemurafenib (NSC761431), dabrafenib (NSC764134), ravoxertinib (NSC781343), BMS-387032 (NSC767048), sotorasib (NSC818433), talazoparib (NSC767125) and afursertib (NSC778305), were obtained from the National Cancer Institute (NCI) Developmental Therapeutics Program Chemical Repository. The FDA-approved anticancer drug set is available from the NCI Developmental Therapeutics Program. […] The stock solutions were prepared in dimethyl sulfoxide (DMSO, Sigma-Aldrich, St. Louis, MO, cat. D2650) at 800-fold the tested concentration and stored at -70 degrees C prior to their use. All drugs and investigational agents were tested over a range starting from a high concentration at or near the clinical Cmax and decreasing in half-log increments. If the clinical Cmax for an agent had not been determined, the highest concentration tested was 10 microM.
NCI60 Cell Culture. NCI60 cell lines were obtained from the NCI Developmental Therapeutics Program Tumor Repository. For each lot of cells, the Repository performed Applied Biosystems AmpFLSTR Identifiler testing with PCR amplification to confirm consistency with the published Identifier STR profile for each cell line. Cells were kept in continuous culture for no more than 20 passages. The optimal seeding densities for each of the cell lines at each time point assessed were determined prior to performing the concentration response studies. Briefly, the NCI60 human tumor lines were grown as monolayers in RPMI 1640 medium supplemented with 10% FBS and 2 mmol/L L-glutamine.
An additional 9 lines were from the NCI60 cell line panel including MDA-MB-231 breast carcinoma, MDA-MB-468 breast carcinoma, MCF7 breast carcinoma, Hs578T breast carcinoma, MALME-3M melanoma, SK-MEL-2 melanoma, SK-OV-3 ovarian carcinoma, DU-145 prostate carcinoma, PC-3 prostate carcinoma, all cell lines along with major genetic alterations are listed on Table 2. Pooled donor human umbilical vein endothelial cells (HUVEC, Lonza, cat. CC-2519) and human mesenchymal stem cells (hMSC, Lonza, cat. PT-2501) were purchased from Lonza (Walkersville, MD).
PDMR cell lines were grown in complete medium (DC medium): Dulbecco's modified Eagle's medium (DMEM)/F12 supplemented with 5% fetal bovine serum (FBS), 2 mM L-glutamine, 100 U/mL penicillin and 100 µg/ml streptomycin, 0.4 µg/ml hydrocortisone, 10 ng/ml epidermal growth factor (EGF) recombinant human protein, 24 µg/mL adenine, and 0.1 mg/mL primocin. During culture from frozen stock vials, PDMR cells were cultured in the same medium containing 10 µM Y-27632 (see Table 3). The PDCs were cultured in complete DMEM/F12 media without 10 microM Y-27632 dihydrochloride for at least two passages prior to the screen. The pooled donor HUVEC and hMSC were cultured in endothelial cell growth medium 2 (PromoCell, Heidelberg, Germany, cat. C-22011) and mesenchymal stem cell growth medium 2 (PromoCell, cat. C-28009), respectively. For all experiments, HUVEC and hMSC were used at passages </=5.
[…]

[1] = second compound 0.1 µM, first compound 0.0316 µM
[2] = second compound 0.1 µM, first compound 0.1 µM
[3] = second compound 0.1 µM, first compound 0.316 µM
[4] = second compound 0.1 µM, first compound 1 µM
[5] = second compound 0.1 µM, first compound 3.16 µM
[6] = second compound 0.1 µM, first compound 10 µM
[7] = second compound 0.316 µM, first compound 0.0316 µM
[8] = second compound 0.316 µM, first compound 0.1 µM
[9] = second compound 0.316 µM, first compound 0.316 µM
[10] = second compound 0.316 µM, first compound 1 µM
[11] = second compound 0.316 µM, first compound 3.16 µM
[12] = second compound 0.316 µM, first compound 10 µM
[13] = second compound 1 µM, first compound 0.0316 µM
[14] = second compound 1 µM, first compound 0.1 µM
[15] = second compound 1 µM, first compound 0.316 µM
[16] = second compound 1 µM, first compound 1 µM
[17] = second compound 1 µM, first compound 3.16 µM
[18] = second compound 1 µM, first compound 10 µM
[19] = second compound 3.16 µM, first compound 0.0316 µM
[20] = second compound 3.16 µM, first compound 0.1 µM
[21] = second compound 10 µM, first compound 0.0316 µM
[22] = second compound 10 µM, first compound 0.1 µM
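Note: spheroids exposed to compounds for 7 days before readout.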

CC1(C)CCC(CN2CCN(c3ccc(C(=O)NS(=O)(=O)c4ccc(NCC5CCOCC5)c([N+](=O)[O-])c4)c(Oc4cnc5[nH]ccc5c4)c3)CC2)=C(c2ccc(Cl)cc2)C1 + CC(C)NCC(C(=O)N1CCN(c2ncnc3c2C(C)CC3O)CC1)c1ccc(Cl)cc1
IC50 (second compound 0.1 µM): 6750 nM | IC50 (second compound 0.316 µM): 5540 nM | IC50 (second compound 1 µM): 3810 nM | IC50 (second compound 3.16 µM): 3550 nM | IC50 (second compound 10 µM): < 31.6 nM | viability, T/C [1]: 101% | viability, T/C [2]: 90.5% | viability, T/C [3]: 87.8% | viability, T/C [4]: 104% | viability, T/C [5]: 94.1% | viability, T/C [6]: 27.1% | viability, T/C [7]: 87.4% | viability, T/C [8]: 76.7% | viability, T/C [9]: 87.3% | viability, T/C [10]: 76.1% | viability, T/C [11]: 75% | viability, T/C [12]: 24% | viability, T/C [13]: 71.6% | viability, T/C [14]: 76% | viability, T/C [15]: 66.2% | viability, T/C [16]: 64.8% | viability, T/C [17]: 58.1% | viability, T/C [18]: 18.2% | viability, T/C [19]: 57.2% | viability, T/C [20]: 62.3% | viability, T/C (second compound 3.16 µM, first compound 0.316 µM): 58.4% | viability, T/C (second compound 3.16 µM, first compound 1 µM): 51.7% | viability, T/C (second compound 3.16 µM, first compound 3.16 µM): 54.4% | viability, T/C (second compound 3.16 µM, first compound 10 µM): 17.7% | viability, T/C [21]: 47.7% | viability, T/C [22]: 44.6% | viability, T/C (second compound 10 µM, first compound 0.316 µM): 44.5% | viability, T/C (second compound 10 µM, first compound 1 µM): 48.1% | viability, T/C (second compound 10 µM, first compound 3.16 µM): 42.7% | viability, T/C (second compound 10 µM, first compound 10 µM): 4.35%

Cc1nc(NC(=O)N2CCCC2C(N)=O)sc1-c1ccnc(C(C)(C)C(F)(F)F)c1 (stereo not given) + CCN1CCN(Cc2ccc(Nc3ncc(F)c(-c4cc(F)c5nc(C)n(C(C)C)c5c4)n3)nc2)CC1
IC50 (second compound 0.01 µM): 388 nM | IC50 (second compound 0.0316 µM): 274 nM | IC50 (second compound 0.1 µM): 401 nM | IC50 (second compound 0.316 µM): < 31.6 nM | IC50 (second compound 1 µM): < 31.6 nM | viability, T/C (second compound 0.01 µM, first compound 0.0316 µM): 87.3% | viability, T/C (second compound 0.01 µM, first compound 0.1 µM): 65.6% | viability, T/C (second compound 0.01 µM, first compound 0.316 µM): 47.3% | viability, T/C (second compound 0.01 µM, first compound 1 µM): 39.6% | viability, T/C (second compound 0.01 µM, first compound 3.16 µM): 33.2% | viability, T/C (second compound 0.01 µM, first compound 10 µM): 10.3% | viability, T/C (second compound 0.0316 µM, first compound 0.0316 µM): 70.4% | viability, T/C (second compound 0.0316 µM, first compound 0.1 µM): 58.8% | viability, T/C (second compound 0.0316 µM, first compound 0.316 µM): 42.9% | viability, T/C (second compound 0.0316 µM, first compound 1 µM): 42% | viability, T/C (second compound 0.0316 µM, first compound 3.16 µM): 27.5% | viability, T/C (second compound 0.0316 µM, first compound 10 µM): 9.58% | viability, T/C [1]: 67.8% | viability, T/C [2]: 62% | viability, T/C [3]: 52.7% | viability, T/C [4]: 39.5% | viability, T/C [5]: 25.2% | viability, T/C [6]: 7.2% | viability, T/C [7]: 46.7% | viability, T/C [8]: 47.9% | viability, T/C [9]: 40.8% | viability, T/C [10]: 36.7% | viability, T/C [11]: 31.2% | viability, T/C [12]: 11.3% | viability, T/C [13]: 48.9% | viability, T/C [14]: 37.9% | viability, T/C [15]: 39% | viability, T/C [16]: 30.2% | viability, T/C [17]: 20.2% | viability, T/C [18]: 9%

Cn1ncnc1[C@H]1c2n[nH]c(=O)c3cc(F)cc(c23)N[C@@H]1c1ccc(F)cc1 + CC(C)NCC(C(=O)N1CCN(c2ncnc3c2C(C)CC3O)CC1)c1ccc(Cl)cc1
IC50 (second compound 0.1 µM): > 100 nM | IC50 (second compound 0.316 µM): 94.3 nM | IC50 (second compound 1 µM): > 100 nM | IC50 (second compound 3.16 µM): > 100 nM | IC50 (second compound 10 µM): < 0.316 nM | viability, T/C (second compound 0.1 µM, first compound 0.000316 µM): 106% | viability, T/C (second compound 0.1 µM, first compound 0.001 µM): 93% | viability, T/C (second compound 0.1 µM, first compound 0.00316 µM): 88% | viability, T/C (second compound 0.1 µM, first compound 0.01 µM): 86.1% | viability, T/C [1]: 82.6% | viability, T/C [2]: 64.2% | viability, T/C (second compound 0.316 µM, first compound 0.000316 µM): 92.7% | viability, T/C (second compound 0.316 µM, first compound 0.001 µM): 87.5% | viability, T/C (second compound 0.316 µM, first compound 0.00316 µM): 78% | viability, T/C (second compound 0.316 µM, first compound 0.01 µM): 59.7% | viability, T/C [7]: 67.2% | viability, T/C [8]: 46.8% | viability, T/C (second compound 1 µM, first compound 0.000316 µM): 70.6% | viability, T/C (second compound 1 µM, first compound 0.001 µM): 60% | viability, T/C (second compound 1 µM, first compound 0.00316 µM): 65.9% | viability, T/C (second compound 1 µM, first compound 0.01 µM): 52.2% | viability, T/C [13]: 65.4% | viability, T/C [14]: 55.4% | viability, T/C (second compound 3.16 µM, first compound 0.000316 µM): 51.2% | viability, T/C (second compound 3.16 µM, first compound 0.001 µM): 54.1% | viability, T/C (second compound 3.16 µM, first compound 0.00316 µM): 51.5% | viability, T/C (second compound 3.16 µM, first compound 0.01 µM): 54.8% | viability, T/C [19]: 44.2% | viability, T/C [20]: 54.8% | viability, T/C (second compound 10 µM, first compound 0.000316 µM): 48.6% | viability, T/C (second compound 10 µM, first compound 0.001 µM): 46.3% | viability, T/C (second compound 10 µM, first compound 0.00316 µM): 42.9% | viability, T/C (second compound 10 µM, first compound 0.01 µM): 35.6% | viability, T/C [21]: 44.2% | viability, T/C [22]: 36.2%
